PubChem BioAssay (NCI)
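Cells were grown in 96-well plates and exposed to each compound for 48 hours at five concentrations; endpoints were interpolated linearly between bracketing concentrations, or set to the highest concentration if not reached. At the TGI there is no net growth.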

Tests used:
Experiment in all cases: NCI tumour cell line growth inhibition, 48 h
[1] = tested on: 786-0 renal
[2] = tested on: A549 NSCLC
[3] = tested on: ACHN renal
[4] = tested on: BT-549 breast
[5] = tested on: CCRF-CEM leukemia
[6] = tested on: COLO 205 colon
[7] = tested on: DU-145 prostate
[8] = tested on: EKVX NSCLC
[9] = tested on: HCC-2998 colon
[10] = tested on: HCT-116 colon
[11] = tested on: HCT-15 colon
[12] = tested on: HL-60(TB) leukemia
[13] = tested on: HOP-62 NSCLC
[14] = tested on: HOP-92 NSCLC
[15] = tested on: HS 578T breast
[16] = tested on: HT29 colon
[17] = tested on: IGROV1 ovarian
[18] = tested on: K-562 leukemia
[19] = tested on: KM12 colon
[20] = tested on: LOX IMVI melanoma
[21] = tested on: M14 melanoma
[22] = tested on: MALME-3M melanoma
[23] = tested on: MCF7 breast
[24] = tested on: MDA-MB-231 breast
[25] = tested on: MDA-MB-435
[26] = tested on: MDA-N
[27] = tested on: MOLT-4 leukemia
[28] = tested on: NCI-H226 lung
[29] = tested on: NCI-H23 lung
[30] = tested on: NCI-H460 lung
[31] = tested on: NCI-H522 lung
[32] = tested on: NCI/ADR-RES ovarian
[33] = tested on: OVCAR-3 ovarian
[34] = tested on: OVCAR-4 ovarian
[35] = tested on: OVCAR-5 ovarian
[36] = tested on: OVCAR-8 ovarian
[37] = tested on: PC-3 prostate
[38] = tested on: RPMI-8226 leukemia
[39] = tested on: RXF 393 renal
[40] = tested on: SF-268 CNS
[41] = tested on: SF-295 CNS
[42] = tested on: SF-539 CNS
[43] = tested on: SK-MEL-2 melanoma
[44] = tested on: SK-MEL-28 melanoma
[45] = tested on: SK-MEL-5 melanoma
[46] = tested on: SK-OV-3 ovarian
[47] = tested on: SN12C renal
[48] = tested on: SNB-19 CNS
[49] = tested on: SNB-75 CNS
[50] = tested on: SR leukemia
[51] = tested on: SW-620 colon
[52] = tested on: T-47D breast
[53] = tested on: TK-10 renal
[54] = tested on: U251 CNS
[55] = tested on: UACC-257 melanoma
[56] = tested on: UACC-62 melanoma
[57] = tested on: UO-31 renal
[58] = tested on: A498 renal
[59] = tested on: CAKI-1 renal

O=C(O)C1(Cc2ccccc2)Cc2cc3c(cc2C1)CCC3
TGI [1]: > 100 µM | TGI [2]: > 100 µM | TGI [3]: > 100 µM | TGI [4]: > 100 µM | TGI [5]: > 100 µM | TGI [6]: > 100 µM | TGI [7]: > 100 µM | TGI [8]: > 100 µM | TGI [9]: > 100 µM | TGI [10]: > 100 µM | TGI [11]: > 100 µM | TGI [12]: > 100 µM | TGI [13]: > 100 µM | TGI [14]: 94 µM | TGI [15]: > 100 µM | TGI [16]: > 100 µM | TGI [17]: > 100 µM | TGI [18]: > 100 µM | TGI [19]: > 100 µM | TGI [20]: > 100 µM | TGI [21]: > 100 µM | TGI [22]: > 100 µM | TGI [23]: > 100 µM | TGI [24]: > 100 µM | TGI [25]: > 100 µM | TGI [26]: > 100 µM | TGI [27]: > 100 µM | TGI [28]: > 100 µM | TGI [29]: > 100 µM | TGI [30]: > 100 µM | TGI [31]: > 100 µM | TGI [32]: > 100 µM | TGI [33]: > 100 µM | TGI [34]: > 100 µM | TGI [35]: > 100 µM | TGI [36]: > 100 µM | TGI [37]: > 100 µM | TGI [38]: > 100 µM | TGI [39]: > 100 µM | TGI [40]: > 100 µM | TGI [41]: > 100 µM | TGI [42]: > 100 µM | TGI [43]: > 100 µM | TGI [44]: > 100 µM | TGI [45]: > 100 µM | TGI [46]: > 100 µM | TGI [47]: > 100 µM | TGI [48]: > 100 µM | TGI [49]: > 100 µM | TGI [50]: > 100 µM | TGI [51]: > 100 µM | TGI [52]: > 100 µM | TGI [53]: > 100 µM | TGI [54]: > 100 µM | TGI [55]: > 100 µM | TGI [56]: > 100 µM | TGI [57]: > 100 µM

CCN1c2cc(Br)cc3[nH]c(=O)n(c23)CCC1C (stereo not given)
TGI [1]: 28.1 µM | TGI [58]: 29 µM | TGI [2]: 35.1 µM | TGI [3]: 63.5 µM | TGI [4]: 31.2 µM | TGI [59]: 36 µM | TGI [5]: > 100 µM | TGI [6]: 31.3 µM | TGI [7]: 36 µM | TGI [8]: 23.5 µM | TGI [9]: 31.6 µM | TGI [10]: 28.3 µM | TGI [11]: 35.5 µM | TGI [12]: 35.8 µM | TGI [13]: 37.2 µM | TGI [14]: 9.25 µM | TGI [15]: 28.9 µM | TGI [16]: 31.6 µM | TGI [17]: 31.5 µM | TGI [18]: > 100 µM | TGI [19]: 47.4 µM | TGI [20]: 24.7 µM | TGI [21]: 34.8 µM | TGI [22]: 56.1 µM | TGI [23]: 54.5 µM | TGI [24]: 43.1 µM | TGI [25]: 16.8 µM | TGI [26]: 19.2 µM | TGI [27]: 65.5 µM | TGI [28]: 37.8 µM | TGI [29]: 53.2 µM | TGI [30]: 35.9 µM | TGI [32]: 23 µM | TGI [33]: 28.9 µM | TGI [34]: 65.2 µM | TGI [35]: 49.9 µM | TGI [36]: 30.9 µM | TGI [37]: 39.7 µM | TGI [38]: > 100 µM | TGI [39]: 27.6 µM | TGI [40]: 46.1 µM | TGI [41]: 39.6 µM | TGI [42]: > 100 µM | TGI [43]: 31.8 µM | TGI [44]: 65.8 µM | TGI [45]: 30 µM | TGI [46]: 49.4 µM | TGI [47]: 30.6 µM | TGI [48]: > 100 µM | TGI [49]: 32.4 µM | TGI [50]: 65.9 µM | TGI [51]: > 100 µM | TGI [52]: 59.9 µM | TGI [53]: 49.2 µM | TGI [54]: 28.6 µM | TGI [55]: 40.6 µM | TGI [56]: 24.6 µM | TGI [57]: 37.7 µM
